Where two headings read alike, the source gives them in different places.
Tests used:
CaLu-6 tumors = format: in vivo, mice
Procedure: Female athymic nude mice (Harlan Sprague Dawley, Madison, Wis.) were utilized for all experiments. Animals were housed in ventilated rack caging with food and water ad libitum. The mice were acclimated for at least 5 days prior to tumor implantation.
The tumor model used in this study was CaLu-6 cell line which is a human lung cancer cell line obtained from the ATCC (Manassas, Va.). CaLu-6 cells were grown in Eagle's Minimum Essential Medium (MEM), 10% FBS and 2 mM L-glutamine. Cells from in vitro passage 12 were implanted SC into study mice using a 1 ml syringe with a 13G trocar: 5×10^6 cells/mouse in 0.2 ml 50% Matrigel/50% MEM medium of CaLu-6 without serum or antibiotics. Bacterial culture was taken on cells used to implant the study.
When tumors reached an appropriated volume, within the size range of 99±17 mm^3 (mean±SD), mice were randomized into the treatment and control groups based on tumor weight by using LabCat® In Life module V 8.0 SP1 tumor tracking and measurement software. Treatments were initiated on DPI 9.
Tumor size measurements were recorded 2-3 times/week from the treatment initiation until the termination of the study.
(§1) Mean, standard deviation and standard error of the mean were determined for tumor volume for all animal groups at all assessments. Student's t test was performed on tumor volumes at each measurement day, including at the end of the study, to determine whether there were any statistically significant differences between combination treatment groups and single monotherapy treatment groups.

[1] = tested on: LoVo (colon cancer) cell line; assay: IC50 determination, MIT (tetrazolium) assay, 72 h (Example 18); format: cell-based, human; conditions: Homo sapiens, 72 hours of drug exposure
Procedure: (§2) Before plating, cell cultures were trypsinized and cell number estimated using an automated flow cytometer.
(§3) Cells were harvested and seeded in 96 well microtiter plates at the appropriate cell density (5,000-10,000 cells) in 150 μL of media and incubated for 24 hours to allow the cells to attach before drug addition.
(§4) After the incubation period (72 hours), 50 μL of MIT solution was added to each microtiter well and incubated for further 8 hours at 37° C. The culture medium was then removed and 50 μl, of DMSO were added to dissolve the MIT crystals. Optical densities were read at 540 nm on spectrophotometer microplate reader.
(§5) IC50 values were calculated from an average of two to four assays for each of the test agents.

[2] = tested on: HT-29 (colon cancer) cell line; assay: as above; format: cell-based, human; conditions: Homo sapiens; HT-29, 72 hours of drug exposure
Procedure: as §2, §3, §4, §5

MRI-H-254 tumors = format: in vivo, mice; conditions: for % T/C on day 20 / % T/C on day 23 / % T/C on day 26 / % T/C on day 30 / % T/C on day 34 / % T/C on day 36 / % T/C on day 43 / % T/C on day 49 / % T/C on day 56 / % T/C on day 63: PM00104 0.90 IV, DPI 20, 27, 34
Procedure: Female athymic nude mice (Harlan Sprague Dawley, Madison, Wis.) were utilized for all experiments. Animals were housed in ventilated rack caging with food and water ad libitum. The mice were acclimated for at least 5 days prior to tumor implantation with tumor fragments.
Bacterial culture was taken on cells used to implant the study.
Treatments were initiated on DPI 20.
5-FU was provided in the form of injection vials which was diluted with 0.9% sterile Saline.
Tumor size measurements were recorded twice weekly from the treatment initiation until the termination of the study.
as §1

[3] = Gemcitabine 90 mg/kg/day IP, alone or with PM00104 0.9 mg/kg/day IV
[4] = PM00104 0.9 mg/kg/day IV and/or Gemcitabine 180 mg/kg/day IP
[5] = 5-FU 100 IP mg/kg/day (G2, G3, G5)

Nc1ccn([C@@H]2O[C@H](CO)[C@@H](O)C2(F)F)c(=O)n1 [Gemcitabine, gemcitabine]
% T/C on day 9 (CaLu-6 tumors; [3]): 100.6%
% T/C on day 12 (CaLu-6 tumors; [3]): 37.8%
% T/C on day 15 (CaLu-6 tumors; [3]): 78.8%
% T/C on day 19 (CaLu-6 tumors; [3]): 64.8%
% T/C on day 22 (CaLu-6 tumors; [3]): 72.0%
% T/C on day 26 (CaLu-6 tumors; [3]): 67.1%
% T/C on day 29 (CaLu-6 tumors; [3]): 61.3%
% T/C on day 34 (CaLu-6 tumors; [3]): 72.8%
% T/C on day 40 (CaLu-6 tumors; [3]): 76.1%
% T/C on day 9 (CaLu-6 tumors; [4]): 99.6%
% T/C on day 12 (CaLu-6 tumors; [4]): 39.0%
% T/C on day 15 (CaLu-6 tumors; [4]): 61.0%
% T/C on day 19 (CaLu-6 tumors; [4]): 62.5%
% T/C on day 22 (CaLu-6 tumors; [4]): 48.7%
% T/C on day 26 (CaLu-6 tumors; [4]): 53.0%
% T/C on day 29 (CaLu-6 tumors; [4]): 46.8%
% T/C on day 34 (CaLu-6 tumors; [4]): 52.8%
% T/C on day 40 (CaLu-6 tumors; [4]): 60.4%

O=c1[nH]cc(F)c(=O)[nH]1 [5-FU, 5-fluorouracil]
IC50 [1]: 1800 nM
IC50 [2]: 4000 nM
% T/C on day 20 (MRI-H-254 tumors; 5-FU 50 IP mg/kg/day (G4, G6)): 96.0%
% T/C on day 23 (MRI-H-254 tumors; 5-FU 50 IP mg/kg/day (G4, G6)): 52.3%
% T/C on day 26 (MRI-H-254 tumors; 5-FU 50 IP mg/kg/day (G4, G6)): 47.9%
% T/C on day 30 (MRI-H-254 tumors; 5-FU 50 IP mg/kg/day (G4, G6)): 55.3%
% T/C on day 34 (MRI-H-254 tumors; 5-FU 50 IP mg/kg/day (G4, G6)): 45.0%
% T/C on day 36 (MRI-H-254 tumors; 5-FU 50 IP mg/kg/day (G4, G6)): 45.7%
% T/C on day 43 (MRI-H-254 tumors; 5-FU 50 IP mg/kg/day (G4, G6)): 58.1%
% T/C on day 49 (MRI-H-254 tumors; 5-FU 50 IP mg/kg/day (G4, G6)): 100.0%
% T/C on day 56 (MRI-H-254 tumors; 5-FU 50 IP mg/kg/day (G4, G6)): 117.6%
% T/C on day 63 (MRI-H-254 tumors; 5-FU 50 IP mg/kg/day (G4, G6)): 123.9%
% T/C on day 20 (MRI-H-254 tumors; [5]): 101.8%
% T/C on day 23 (MRI-H-254 tumors; [5]): 55.2%
% T/C on day 26 (MRI-H-254 tumors; [5]): 47.1%
% T/C on day 30 (MRI-H-254 tumors; [5]): 36.3%
% T/C on day 34 (MRI-H-254 tumors; [5]): 31.6%
% T/C on day 36 (MRI-H-254 tumors; [5]): 23.0%
% T/C on day 43 (MRI-H-254 tumors; [5]): 30.9%
% T/C on day 49 (MRI-H-254 tumors; [5]): 54.6%
% T/C on day 56 (MRI-H-254 tumors; [5]): 96.3%
% T/C on day 63 (MRI-H-254 tumors; [5]): 107.8%
% Inhibition (MRI-H-254 tumors; day 20, PM00104 0.9 and 5-FU 50 mg/kg/day): 4.0%
% Inhibition (MRI-H-254 tumors; day 20, PM00104 0.9 and 5-FU 100 mg/kg/day): −1.8%
% Inhibition (MRI-H-254 tumors; day 23, PM00104 0.9 and 5-FU 50 mg/kg/day): 47.7%
% Inhibition (MRI-H-254 tumors; day 23, PM00104 0.9 and 5-FU 100 mg/kg/day): 44.8%
% Inhibition (MRI-H-254 tumors; day 26, PM00104 0.9 and 5-FU 50 mg/kg/day): 52.1%
% Inhibition (MRI-H-254 tumors; day 26, PM00104 0.9 and 5-FU 100 mg/kg/day): 52.9%
% Inhibition (MRI-H-254 tumors; day 30, PM00104 0.9 and 5-FU 50 mg/kg/day): 44.7%
% Inhibition (MRI-H-254 tumors; day 30, PM00104 0.9 and 5-FU 100 mg/kg/day): 63.7%
% Inhibition (MRI-H-254 tumors; day 34, PM00104 0.9 and 5-FU 50 mg/kg/day): 55.0%
% Inhibition (MRI-H-254 tumors; day 34, PM00104 0.9 and 5-FU 100 mg/kg/day): 68.4%
% Inhibition (MRI-H-254 tumors; day 36, PM00104 0.9 and 5-FU 50 mg/kg/day): 54.3%
% Inhibition (MRI-H-254 tumors; day 36, PM00104 0.9 and 5-FU 100 mg/kg/day): 77.0%
% Inhibition (MRI-H-254 tumors; day 43, PM00104 0.9 and 5-FU 50 mg/kg/day): 41.9%
% Inhibition (MRI-H-254 tumors; day 43, PM00104 0.9 and 5-FU 100 mg/kg/day): 69.1%
% Inhibition (MRI-H-254 tumors; day 49, PM00104 0.9 and 5-FU 50 mg/kg/day): 0.0%
% Inhibition (MRI-H-254 tumors; day 49, PM00104 0.9 and 5-FU 100 mg/kg/day): 45.4%
% Inhibition (MRI-H-254 tumors; day 56, PM00104 0.9 and 5-FU 50 mg/kg/day): −17.6%
% Inhibition (MRI-H-254 tumors; day 56, PM00104 0.9 and 5-FU 100 mg/kg/day): 3.7%
% Inhibition (MRI-H-254 tumors; day 63, PM00104 0.9 and 5-FU 50 mg/kg/day): −23.9%
% Inhibition (MRI-H-254 tumors; day 63, PM00104 0.9 and 5-FU 100 mg/kg/day): −7.8%

— patent US20110070232A1, “Combination Therapy with an Antitumor Alkaloid” (Pharma Mar, S.A., priority 2008, published 2011)
